In brackets after ≈: the same amount, converted by molar mass. Entries after “also recorded” stand apart in the source; their conditions may differ.
Columns and labels:
[1] = target: rabbit NHE3 (Oryctolagus cuniculus, UniProt P26432); details: 10 μg/ml, acid preloaded 40 mM NH4Cl, FIG. 10
Protocol: Internal pH was measured either following acid loading or in the absence of an acid-loading challenge, with the results shown in FIGS. 1A and 1B.
Specifically, PS120 fibroblasts transfected with rabbit NHE3 were grown in supplemented Dulbecco's-modified Eagle's medium as described by Levine et al., J. Biol. Chem. 268, 1993, 25527-25535. […] For cells not acid-preloaded, the actual internal pH value was monitored as a function of time following addition of squalamine, with the results depicted in FIG. 1B.
PS120 fibroblasts transfected with rabbit NHE3 were grown and acid preloaded by exposure to 40 mM NH4 Cl as described above in conjunction with FIGS. 1A and 1B. Internal cellular pH changes expressed as the rate of pH recovery as a function of restored extracellular sodium ion concentration following exposure to 10 μg/ml of the compound were assayed with the fluorescent dye BCECF-AM as described above.

[2] = test system: stage 59-60 Xenopus tadpole; assay: Xenopus tadpole assay; details: for tadpole response: about 1 hour
[3] = test system: stage 59-60 Xenopus tadpole; details: 10 μg/mL, Table II
[4] = test system: heart of a juvenile Xenopus laevis frog; assay: persistence of beating of isolated frog heart; details: 10 μg/ml
Protocol: To determine if compound 1436 has such utility, the following experiment was performed. The heart of a juvenile Xenopus laevis frog was dissected from the living animal. The heart was placed into a Petri dish containing Krebs-Ringer buffer with adrenaline 50 μg/ml, and examined with the naked eye. At room temperature, the heart continued beating in a coordinated fashion (atrial beat followed by ventricular beat) for about one hour. In the presence of 10 μg/ml of compound 1436, spontaneous beating persisted up to 24 hours.

[5] = test system: L1210 lymphoblastic leukemia cells; assay: mouse model of leukemia; format: in vivo; details: highest dose (10 mg/kg every 3 days ip), FIG. 11
Description: C57B mice were inoculated with L1210 lymphoblastic leukemia cells at an inoculum that causes leukemia in 100% of animals.

[6] = effect on growth and weight gain of growing mice; format: in vivo, mouse (C57B)
Protocol: Animals were dosed QTD (i.p.) starting on Day 1. […] Animals receiving 5 mg/kg QTD experienced about a 50% reduction in growth, compared to untreated controls, while animals receiving 1 mg/kg QTD were affected by about 10%. […] They appeared very much like hypophysectamized animals might appear.

[7] = effect on fasting blood glucose in mice; format: in vivo, mouse (male CD-1); details: i.v.
Protocol: To study the effect of steroid administrator or the NHE responsible for secretion of insulin, several of the aminosterols from shark liver were administered to fasting mice. Male CD-1 mice were assigned to one of four treatment groups. Whole blood glucose was tested using glucometer (Lifescan Glucometer II and One Touch test strips). Statistical analysis was via one-way analysis of variance (ANOVA) followed by subsequent Bonferonni's t-test.

[8] = test system: Human ovarian carcinoma SKOV3; assay: growth inhibition in vitro; format: cell-based
Protocol: (§1) As set forth in Table 7 below, all malignant tumors evaluated in tissue culture, endothelial cells and vascular smooth muscle cells were sensitive to inhibition. Thus, compound 1436 has application in the control of growth factor dependent proliferation of many types of tissue.
Using the assay described above, the anticancer effects of compound 1437 against several cancer lines was assessed.

[9] = test system: Human coronary artery smooth muscle cells; assay: growth inhibition in vitro; format: cell-based; details: 10 μg/ml
Description: as §1

[10] = test system: Lewis lung carcinoma; assay: growth inhibition in vitro; format: cell-based; details: 10 μg/ml
Description: as §1

[11] = test system: Human microvascular endothelial cells; assay: growth inhibition in vitro; format: cell-based; details: 10 μg/ml
Description: as §1

[12] = test system: Human colon carcinoma HT29; assay: growth inhibition in vitro; format: cell-based; details: HT29, 10 μg/ml
Description: as §1

[13] = test system: human umbilical venous endothelial cells; assay: growth inhibition in vitro; format: cell-based; details: 10 μg/ml
Description: as §1

[14] = test system: bovine pulmonary endothelial cells; assay: growth inhibition in vitro; format: cell-based; details: 10 μg/ml
Description: as §1

[15] = test system: Murine B16 melanoma; assay: growth inhibition in vitro; format: cell-based; details: Murine B16 melanoma, 10 μg/ml
Description: as §1

[16] = test system: Human colon carcinoma SW948; assay: growth inhibition in vitro; format: cell-based; details: SW948, 10 μg/ml
Description: as §1

[17] = test system: Murine L1210 leukemia; assay: growth inhibition in vitro; format: cell-based; details: 10 μg/ml
Description: as §1

[18] = test system: Human melanoma WM 1617; assay: growth inhibition in vitro; format: cell-based; details: WM 1617, 10 μg/ml
Description: as §1

[19] = test system: chick embryo vitelline capillaries; assay: chick embryo vitelline capillary regression assay; format: in vivo
Protocol: Using the chick embryo vitelline capillaries assay, compounds were tested for their ability to induce capillary regression. Each compound was applied in 0.1 ml of 15% Ficol 400 and PBS onto the embryo, and vascular regression was assessed after 60 minutes.
The 3-day chick embryo consists of an embryonic disc from which numerous vessels emerge and return, forming a "FIG. 8"-shaped structure--the embryo in the center with vascular loops extending outward over both poles. […] Following a lag period of around 15 minutes, the constriction of continuity between capillary and secondary vessels, generally on the "venous" side, was observed. Continued pulsatile blood flow progressed, resulting in a "swelling" of the blind tube, followed by a pinching off of the remaining connection and formation of an enclosed vascular sac resembling a "blood island." This process progressed until only the largest vessels remained intact.

[20] = effect on arterial resistance in the rat; format: in vivo; details: 5 mg/kg i.v.
Protocol: A 200-g rat was catheterized in the right carotid artery, and the compound was introduced over a ten-second period to a total dosage of 5 mg/kg. Within 30 seconds, the mean arterial pressure had fallen from about 100 mm Hg to about 70 mm Hg, with a marked reduction in pulse pressure from about 40 mm to about 10 mm. […] If cardiac output was basically unaffected, reduction in blood pressure would have resulted principally from a reduction in system resistance.
At that time, 40 μg of noradrenaline was introduced.

[21] = test system: human melanoma; assay: effect on growth of human melanoma over time / mode of cell death; format: cell-based
[22] = test system: HIV clinical isolate; assay: inhibition of HIV replication in PHA-stimulated lymphocytes (HIV P-24 antigen Elisa); format: cell-based; details: 20 μM
Description: (§2) Results are tabulated below.

[23] = viability of lymphocytes in HIV test; format: cell-based; details: human
Description: as §2

[24] = test system: human coronary artery smooth muscle; assay: proliferation of human coronary artery smooth muscle in vitro; format: cell-based; details: FIG. 15
Description: Aminosterols of the invention may also have utility in inhibiting the growth factor mediated proliferation of smooth muscle within the artery. Following coronary angioplasty, reocclusion commonly occurs, secondary to reparative proliferation of the vascular smooth muscle within the wall of the surgically manipulated blood vessel. This process generally takes place over the course of 7-10 days. To evaluate whether an agent could prevent the growth factor mediated proliferation of smooth muscle within the artery, compound 1436 was evaluated in vitro for its effect on the proliferation of human coronary artery smooth muscle. Results for compound 1436 are shown in FIG. 13, and those for squalamine are shown in FIG. 14, with FIG. 15 being a composite logarithmic plot.

[25] = test system: B16 melanoma; assay: suppression of growth of B16 melanoma in C57B mice; format: in vivo, mouse; details: 10 mg/kg every 3 days alone, FIG. 12
Protocol: The growth of B16 melanoma in C57B mice is dependent upon neovascularization.
Using the growth of B16 melanoma cells in C57B mice, a recognized model for the evaluation of inhibitors of angiogenesis on the growth of cancers, the effects of subcutaneous, intraperitoneal and oral administration of squalamine were evaluated.
Based on the idea that tumor growth involves both the clonal expansion of a malignant cell along with the development of a supporting vascular supply, a combination of compound 1436 with squalamine was tested to determine whether it would achieve a synergistic effect on solid tumor growth. This concept was evaluated in the B16 melanoma model.
Animals were implanted with B16 melanoma followed by treatment with compound 1436 or 1256 administered in a combined schedule or separately. […] Thus, a combination of these two compounds achieves a therapeutic benefit in tumors dependent on neovascularization that may prevent metastatic spread.

[26] = test system: human lymphocytes; assay: inhibition of mitogen (PHA)-stimulated growth of human T-cells; details: Homo sapiens, Lymphocyte, read-out: inhibition of blast transformation
Protocol: Specific assays were used to identify steroids with a particular biological activity, such as an assay for inhibition of mitogen-stimulated growth of human T-cells.
Human heparinized blood, freshly collected, was introduced into tissue culture flasks containing 10 μg/ml phytohaemagglutinin (PHA) in RPMI medium with 10% FCS. Various purified steroids were introduced subsequently at concentrations of 1, 5, and 10 μg/ml. Cultures were incubated for 72 hours, after which time colcemid was added to 1 μg/ml. Cultures were maintained for an additional 2 hours, and cells collected. Miotic figures were estimated using standard cytochemical techniques, following Giemsa staining.

[27] = test system: Lewis lung carcinoma; assay: cytotoxic activity against cancer cells; format: cell-based
[28] = test system: human microvascular cells; assay: inhibition of endothelial cell cord formation in vitro; format: cell-based; on effect on endothelial cord formation: key: +: Inhibition of angiogenesis; -: No inhibition of angiogenesis; Toxic; *: cell rounding @ 10 µg/ml
Description: Endothelial cells have the capacity in vitro to form tubular aggregates resembling capillaries in various early stages of formation. This conversion occurs under relatively specific conditions, in which essential growth factors along with an effective substratum are provided. It has been shown that both the interaction of growth factors with the endothelial cell and its attachment to a substratum activate the NHE. The activation of this exchanger is believed to be required for subsequent morphologic transformation of the endothelial cell into a multicellular tubular structure.
To assess the effect of compounds on the cord-like structures formed by human microvascular cells when plated in the presence of VEGF (Vascular Endothelial Growth Factor) and basic fibroblast growth factor on a collagen matrix, a standard cord formation assay was used.

[29] = test system: Human melanoma WM 1167; assay: cytotoxic activity against cancer cells; format: cell-based
[30] = test system: E. coli; assay: antibiotic activity (MIC); format: cell-based; details: Escherichia coli; E. coli; read-out: MIC
Description: (§3) Thus, it is possible to achieve an antimicrobial steroid with or without squalamine-like pharmacological activity.

[31] = test system: C. albicans; assay: antibiotic activity (MIC); format: cell-based; details: Candida albicans; C. albicans; read-out: MIC
Description: as §3

[32] = test system: S. aureus; assay: antibiotic activity (MIC); format: cell-based; details: Staphylococcus aureus; S. aureus; read-out: MIC
Description: as §3

[33] = test system: P. aerug; assay: antibiotic activity (MIC); format: cell-based; details: P. aerug; read-out: MIC
Description: as §3

rabbit NHE3, sequence (P26432 30-832): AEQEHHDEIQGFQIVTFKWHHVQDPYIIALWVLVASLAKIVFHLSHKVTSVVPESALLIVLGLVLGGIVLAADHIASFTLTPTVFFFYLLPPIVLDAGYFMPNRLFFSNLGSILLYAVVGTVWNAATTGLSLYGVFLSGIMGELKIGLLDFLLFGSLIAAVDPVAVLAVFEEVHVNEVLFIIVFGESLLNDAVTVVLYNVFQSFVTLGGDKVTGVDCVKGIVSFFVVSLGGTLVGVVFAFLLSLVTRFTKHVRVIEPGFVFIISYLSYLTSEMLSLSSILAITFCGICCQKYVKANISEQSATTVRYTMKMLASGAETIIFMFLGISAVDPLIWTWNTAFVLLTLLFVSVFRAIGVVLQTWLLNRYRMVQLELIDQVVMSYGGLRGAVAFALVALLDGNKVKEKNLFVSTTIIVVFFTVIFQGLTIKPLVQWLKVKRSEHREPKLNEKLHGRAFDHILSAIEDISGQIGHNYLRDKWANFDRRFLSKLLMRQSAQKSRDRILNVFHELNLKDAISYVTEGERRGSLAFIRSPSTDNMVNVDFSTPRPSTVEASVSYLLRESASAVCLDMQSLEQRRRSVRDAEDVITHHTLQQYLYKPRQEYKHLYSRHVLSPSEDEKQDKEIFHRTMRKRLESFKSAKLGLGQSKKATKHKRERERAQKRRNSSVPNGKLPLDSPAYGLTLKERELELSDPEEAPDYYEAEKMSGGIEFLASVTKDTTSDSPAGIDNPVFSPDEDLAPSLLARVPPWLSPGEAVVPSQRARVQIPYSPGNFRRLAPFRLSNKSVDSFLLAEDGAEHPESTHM

CC(C)[C@@H](CC[C@@H](C)[C@H]1CC[C@H]2[C@@H]3[C@H](O)C[C@H]4C[C@@H](NCCCNCCCCNCCCN)CC[C@]4(C)[C@H]3CC[C@]12C)OS(=O)(=O)O [Compound 1436]
inhibition of rabbit NHE3 (rate of pH recovery) [1]: inhibit rabbit NHE3 | time to death of tadpole ([2]; 10 μg/ml): about 2 hours | tadpole response ([2]; 10 μg/ml): Gradual reduction in overall activity. Heart beat remained strong, suggesting nervous system depression. Melanocytes over head and tail began to swell, first exhibiting visibly distinct nuclei, followed by rupture into fragments | Tadpole M (merarocytes) [3]: + | atrial pacemaker and conduction [4]: remained vigorous | survival of mice bearing L1210 leukemia [5]: significant prolongation of life | reduction in growth ([6]; 1 mg/kg QTD i.p.): about 10% | suppression of growth of mice ([6]; 10 mg/kg QTD i.p., after 6 doses, about 1 month): growth was almost completely inhibited | apparent health of treated animals ([6]; mouse, in vivo): all were active, normally proportioned, not-cachectic, and in excellent apparent clinical health | hyperglycemia [7]: caused hyperglycemia in mice | cancer cells inhibited in vitro ([8]; SKOV3, 10 μg/ml): INHIBITED | non-transformed cells inhibited in vitro [9]: INHIBITED | cancer cells inhibited in vitro [10]: INHIBITED | non-transformed cells inhibited in vitro [11]: INHIBITED | cancer cells inhibited in vitro [12]: INHIBITED | non-transformed cells inhibited in vitro [13]: INHIBITED | non-transformed cells inhibited in vitro [14]: INHIBITED | cancer cells inhibited in vitro [15]: INHIBITED | cancer cells inhibited in vitro [16]: INHIBITED | cancer cells inhibited in vitro [17]: INHIBITED | cancer cells inhibited in vitro [18]: INHIBITED | vitelline capillary regression, potency in words [19]: about the same potency as squalamine | duration of effect followed without significant change [20]: 30 min | heart rate [20]: no significant increase in heart rate | mode of cell death [21]: same highly selective mechanism of killing | P-24 Elisa [22]: 9 | viability at 168 h, 0.5 µM ([23]; 0.5 μM): 91% | viability at 168 h, 10 µM ([23]; 10 μM): 95% | viability at 168 h ([23]; 10 μg/ml, read-out: lymphocyte viability): 95% | viability at 168 h, 20 µM ([23]; 20 μM): 90.1% | growth of human coronary artery smooth muscle [24]: suppress in vitro the growth | impact on tumor volume [25]: no significant impact on tumor volume | inhibition at 10 µg/mL [26]: > 75%

CC(C)C(CO)(CC[C@@H](C)[C@H]1CC[C@H]2[C@@H]3[C@H](O)C[C@H]4C[C@@H](NCCCNCCCCN)CC[C@]4(C)[C@H]3CC[C@]12C)OS(=O)(=O)O (single isomer, unassigned) [Compound 1437]
tadpole response ([2]; 10 μg/ml): Epithelium covering the embryonic portions of the animal, such as the tail and antennae, began to slough off in sheets; also recorded: the larval skin was observed to shed off in a sheet | hyperglycemia [7]: caused hyperglycemia in mice | anticancer activity ([8]; SKOV3): exhibit anticancer activity

CC(C)CCC[C@@H](C)[C@H]1CC[C@H]2[C@@H]3CC[C@H]4C[C@@H](NCCCNCCCCNCCCN)CC[C@]4(C)[C@H]3CC[C@]12C [Compound 353]
similarity of pharmacologic activity in tadpole assay ([2]; in vivo): effects like those produced by compound 1436 | IC50 [27]: 1.9 µg/mL (≈ 3.32 µM) | effect on endothelial cord formation ([28]; 0.1 μg/ml): + | effect on endothelial cord formation ([28]; 1.0 μg/ml): + | effect on endothelial cord formation ([28]; 10.0 μg/ml): + | minimal effective concentration ([28]; Homo sapiens, Endothelial cell, Table II, read-out: Minimum Effective Concentration, Cord Formation): 10 µg/mL | vitelline capillary regression, potency in words [19]: no effect on the chick embryo capillary bed | mode of cell death [21]: apoptotic cell death has been induced | IC50 [29]: 3 µg/mL (≈ 5.24 µM) | MIC [30]: 128 µg/mL (≈ 223 µM) | MIC [31]: 32 µg/mL (≈ 55.8 µM) | MIC [32]: 16 µg/mL (≈ 27.9 µM) | MIC [33]: 64 µg/mL (≈ 112 µM)
